Assay results published in US20250019385A1, “SPIROCYCLIC ANNULATED 2-AMINO-3-CYANO THIOPHENES AND DERIVATIVES FOR THE TREATMENT OF CANCER” (Boehringer Ingelheim International GmbH, priority 2023, published 2025).

System: AsPC-1 cells
Assay: AsPC-1 CTG proliferation assay (120 h) (pancreatic cancer, G12D)
Assay type: cell-based
Details: Homo sapiens, ASPC1
Protocol: (§1) AsPC-1 cells (ATCC CRL-1682) are dispensed into black 384-well plates, flat and clear bottom (Greiner, PNr. 781091) at a density of 500 cells per well in 60 μl RPMI ATCC-Formulation (PAN P04-18047)+10% FCS (fetal calf serum, HyClone, SH30084.03). Cells are incubated overnight at 37° C. in a humidified tissue culture incubator at 5% CO2. Compounds (10 mM stock in DMSO) are added at logarithmic dose series using the ECHO acoustic liquid handler system (Beckman Coulter), normalizing for added DMSO and including DMSO controls. All compound treatments are performed in technical duplicates. For the TO time point measurement, untreated cells are analyzed at the time of compound addition. Plates are incubated for 120 h, and cell viability is measured using CellTiter-Glo luminescent cell viability reagent (Promega product code G7570). Viability (stated as percent of control) is defined as relative luminescence units RLU of each well divided by the RLU of cells in DMSO controls. IC50 values are determined from viability measurements by non-linear regression using a four-parameter model.
(§2) IC50 values of representative compounds according to the invention measured with these assays in the indicated cell lines are presented in Table 46.

Row | SMILES | IC50 [nM]
1 | C[C@H](Oc1nc(-c2noc3c2CCC[C@@]32CCCc3sc(N)c(C#N)c32)nc2c1COC[C@]21CCOC1)[C@@H]1CCCN1C [II-8] | 62
2 | COCCn1c(=O)n([C@@H]2CCOC2)c2nc(-c3onc4c3CCC[C@@]43CCCc4sc(N)c(C#N)c43)nc(O[C@@H](C)[C@@H]3CCCN3C)c21 [I-1] | 705
3 | Cc1nc2c(O[C@@H](C)[C@@H]3CCCN3C)nc(-c3onc4c3CCC[C@@]43CCCc4sc(N)c(C#N)c43)nc2n1[C@@H]1CCOC1 [I-39] | 353
4 | CCn1c(=O)n([C@@H]2CCCOC2)c2nc(-c3onc4c3CCC[C@@]43CCCc4sc(N)c(C#N)c43)nc(O[C@@H](C)[C@@H]3CCCN3C)c21 [I-30] | 972
5 | C[C@H](Oc1nc(-c2onc3c2CCC[C@@]32CCCc3sc(N)c(C#N)c32)nc2c1n(C)c(=O)n2[C@H]1CC2CCC1O2)[C@@H]1CCCN1C (stereo partly drawn) [I-17] | 1480
6 | CO[C@H]1CCN(C)[C@@H]1[C@H](C)Oc1nc(-c2noc3c2CCC[C@@]32CCCc3sc(N)c(C#N)c32)nc2c1n(C)c(=O)n2[C@@H]1CCOC1 [II-1] | 323

System: NCI-H358 cells
Assay: NCI-H358 CTG proliferation assay (120 h) (NSCLC, G12C)
Assay type: cell-based
Details: Homo sapiens
Protocol: as §1, with “NCI-H358” for “AsPC-1”, “No. CRL-5807)” for “CRL-1682)”, “200” for “500”, “RPMI-1640” for “RPMI”, “(Gibco #A10491)+10%” for “(PAN P04-18047)+10%”, “serum).” for “serum, HyClone, SH30084.03).”
as §2

Row | SMILES | IC50 [nM]
7 | C[C@H](Oc1nc(-c2noc3c2CCC[C@@]32CCCc3sc(N)c(C#N)c32)nc2c1COC[C@]21CCOC1)[C@@H]1CCCN1C [II-8] | 1
8 | COCCn1c(=O)n([C@@H]2CCOC2)c2nc(-c3onc4c3CCC[C@@]43CCCc4sc(N)c(C#N)c43)nc(O[C@@H](C)[C@@H]3CCCN3C)c21 [I-1] | 9
9 | Cc1nc2c(O[C@@H](C)[C@@H]3CCCN3C)nc(-c3onc4c3CCC[C@@]43CCCc4sc(N)c(C#N)c43)nc2n1[C@@H]1CCOC1 [I-39] | 19
10 | CCn1c(=O)n([C@@H]2CCCOC2)c2nc(-c3onc4c3CCC[C@@]43CCCc4sc(N)c(C#N)c43)nc(O[C@@H](C)[C@@H]3CCCN3C)c21 [I-30] | 7
11 | C[C@H](Oc1nc(-c2onc3c2CCC[C@@]32CCCc3sc(N)c(C#N)c32)nc2c1n(C)c(=O)n2[C@H]1CC2CCC1O2)[C@@H]1CCCN1C (stereo partly drawn) [I-17] | 20
12 | CO[C@H]1CCN(C)[C@@H]1[C@H](C)Oc1nc(-c2noc3c2CCC[C@@]32CCCc3sc(N)c(C#N)c32)nc2c1n(C)c(=O)n2[C@@H]1CCOC1 [II-1] | 4

System: NCI-H727 cells
Assay: NCI-H727 CTG proliferation assay (120 h) (lung cancer, G12V)
Assay type: cell-based
Details: Homo sapiens
Protocol: as §1, with “NCI-H727” for “AsPC-1”, “No. CRL-5815)” for “CRL-1682)”
as §2

Row | SMILES | IC50 [nM]
13 | C[C@H](Oc1nc(-c2noc3c2CCC[C@@]32CCCc3sc(N)c(C#N)c32)nc2c1COC[C@]21CCOC1)[C@@H]1CCCN1C [II-8] | 1
14 | COCCn1c(=O)n([C@@H]2CCOC2)c2nc(-c3onc4c3CCC[C@@]43CCCc4sc(N)c(C#N)c43)nc(O[C@@H](C)[C@@H]3CCCN3C)c21 [I-1] | 10
15 | Cc1nc2c(O[C@@H](C)[C@@H]3CCCN3C)nc(-c3onc4c3CCC[C@@]43CCCc4sc(N)c(C#N)c43)nc2n1[C@@H]1CCOC1 [I-39] | 28
16 | CCn1c(=O)n([C@@H]2CCCOC2)c2nc(-c3onc4c3CCC[C@@]43CCCc4sc(N)c(C#N)c43)nc(O[C@@H](C)[C@@H]3CCCN3C)c21 [I-30] | 6
17 | C[C@H](Oc1nc(-c2onc3c2CCC[C@@]32CCCc3sc(N)c(C#N)c32)nc2c1n(C)c(=O)n2[C@H]1CC2CCC1O2)[C@@H]1CCCN1C (stereo partly drawn) [I-17] | 48
18 | CO[C@H]1CCN(C)[C@@H]1[C@H](C)Oc1nc(-c2noc3c2CCC[C@@]32CCCc3sc(N)c(C#N)c32)nc2c1n(C)c(=O)n2[C@@H]1CCOC1 [II-1] | 2

System: not listed separately
Assay: Metabolic (microsomal) stability assay, human liver microsomes (HLM)
Assay type: in vitro ADME
Details: 1 μM test compound, predicted clearance as percent of liver blood flow

Row | SMILES | HLM QH [%]
19 | C[C@H](Oc1nc(-c2noc3c2CCC[C@@]32CCCc3sc(N)c(C#N)c32)nc2c1COC[C@]21CCOC1)[C@@H]1CCCN1C [II-8] | 46
20 | COCCn1c(=O)n([C@@H]2CCOC2)c2nc(-c3onc4c3CCC[C@@]43CCCc4sc(N)c(C#N)c43)nc(O[C@@H](C)[C@@H]3CCCN3C)c21 [I-1] | 65
21 | Cc1nc2c(O[C@@H](C)[C@@H]3CCCN3C)nc(-c3onc4c3CCC[C@@]43CCCc4sc(N)c(C#N)c43)nc2n1[C@@H]1CCOC1 [I-39] | 57
22 | CCn1c(=O)n([C@@H]2CCCOC2)c2nc(-c3onc4c3CCC[C@@]43CCCc4sc(N)c(C#N)c43)nc(O[C@@H](C)[C@@H]3CCCN3C)c21 [I-30] | 25
23 | C[C@H](Oc1nc(-c2onc3c2CCC[C@@]32CCCc3sc(N)c(C#N)c32)nc2c1n(C)c(=O)n2[C@H]1CC2CCC1O2)[C@@H]1CCCN1C (stereo partly drawn) [I-17] | <24
24 | CO[C@H]1CCN(C)[C@@H]1[C@H](C)Oc1nc(-c2noc3c2CCC[C@@]32CCCc3sc(N)c(C#N)c32)nc2c1n(C)c(=O)n2[C@@H]1CCOC1 [II-1] | 80

System: SK-CO-1 cells
Assay: SK-CO-1 CTG proliferation assay (120 h) (CRC, G12V)
Assay type: cell-based
Details: Homo sapiens
Protocol: as §1, with “SK—CO-1” for “AsPC-1”, “HTB-39)” for “CRL-1682)”, “EMEM (Sigma M5650)+10%” for “RPMI ATCC-Formulation (PAN P04-18047)+10%”
as §2

Row | SMILES | IC50 [nM]
25 | C[C@H](Oc1nc(-c2noc3c2CCC[C@@]32CCCc3sc(N)c(C#N)c32)nc2c1COC[C@]21CCOC1)[C@@H]1CCCN1C [II-8] | 1
26 | COCCn1c(=O)n([C@@H]2CCOC2)c2nc(-c3onc4c3CCC[C@@]43CCCc4sc(N)c(C#N)c43)nc(O[C@@H](C)[C@@H]3CCCN3C)c21 [I-1] | 8
27 | Cc1nc2c(O[C@@H](C)[C@@H]3CCCN3C)nc(-c3onc4c3CCC[C@@]43CCCc4sc(N)c(C#N)c43)nc2n1[C@@H]1CCOC1 [I-39] | 14
28 | CCn1c(=O)n([C@@H]2CCCOC2)c2nc(-c3onc4c3CCC[C@@]43CCCc4sc(N)c(C#N)c43)nc(O[C@@H](C)[C@@H]3CCCN3C)c21 [I-30] | 11
29 | C[C@H](Oc1nc(-c2onc3c2CCC[C@@]32CCCc3sc(N)c(C#N)c32)nc2c1n(C)c(=O)n2[C@H]1CC2CCC1O2)[C@@H]1CCCN1C (stereo partly drawn) [I-17] | 83
30 | CO[C@H]1CCN(C)[C@@H]1[C@H](C)Oc1nc(-c2noc3c2CCC[C@@]32CCCc3sc(N)c(C#N)c32)nc2c1n(C)c(=O)n2[C@@H]1CCOC1 [II-1] | 4
